Broadly, the inhibition is the share of the control response that was lost under treatment. The term IC50 denotes the midpoint of a concentration-inhibition curve. High values mean weaker potency, low ones greater potency.

This is an account of results in patent US8946431B2, “2-(substituted ethynyl)quinoline derivatives as mGLUr5 antagonists” (Korea Institute of Science and Technology, priority 2013, dated 2015).

Like-named read-outs stand apart in the source and are kept apart here. Marks after values point to notes of the source that are not given here.

One data set addresses CYP2D6 (Homo sapiens, UniProt P10635). Briefly: CYP inhibitory rate, CYP2D6. In kind it is in vitro ADME.
Another data set addresses CYP3A4 (Homo sapiens, UniProt P08684). The experiment in a line: CYP inhibitory rate, CYP3A4. The data set is classed as in vitro ADME.
The next data set concerns the target CYP2C9 (Homo sapiens, UniProt P11712). The experiment in a line: CYP inhibitory rate, CYP2C9. The data set is classed as in vitro ADME.
Data set [1] can be described thus: HLM (human liver microsomal) stability. In kind it is in vitro ADME. The following applies: human liver microsomes. Background: Liver microsomes are a subcellular fraction often used to study metabolism.
The target of data set [2] is T1, mGluR5 (Homo sapiens, UniProt P41594).
T1 construct: host or cells: HEK293 (human embryonic kidney) cells stably expressing m-GluR5
Briefly: Assay for m-GluR5 activity using FDSS6000 (calcium mobilization by L-glutamate in mGluR5/HEK293 cells). In kind it is cell-based. The conditions noted are these: HEK293, L-glutamate 10 uM, HEK cells expressing m-GluR5, read-out: % Inhibition rate (mGluR5); for inhibition at 1 µM: 1 μM compound; for inhibition at 10 µM: 10 μM compound. The protocol:
Inhibitory activity (%) of the compound represented by Formula 1 on calcium mobilization developed at a high concentration of glutamate in mGluR5/HEK293 cells was measured by using a high throughput FDSS6000.
After HEK cells stably expressing m-GluR5 (Human embryonic kidney cell line; m-GluR5: Yonsei University) were prepared at a density of 4×10^4/Ml per well, aliquots of 100 μl from the cell suspension were distributed evenly into a 96-well plate and incubated for 18 hr at 37° C., 5% CO2. The well plate was washed with a HBSS buffer to remove the culture medium, and reacted with a HBSS buffer containing a Ca^2+ fluorescent dye (FLIPR Calcium 5 assay kit: Molecular Devices) for 30 min at 37° C., 5% CO2, thereby labeling with the fluorescent dye. Separately from the 96-well plate including the cells, another 96-well plate including L-glutamate (final concentration: 10 uM) capable of activating m-GluR5 and a blacking agent was prepared. Since most of cell-based HTS devices are equipped with a liquid application system for injection of a drug, but have no liquid sucking system, the blocking agent to be tested and L-glutamate were respectively provided at a 6-fold higher concentration in a HBSS buffer at the amount of 25 μl, diluted by six-times at the final cell plate volume of 150 μl, and then used in this assay. Briefly, the FDSS6000 assay was carried out by recording a reference level of 20 sec, pre-treating with a blocking agent for 75 sec, and then measuring the change in intracellular calcium level depending on the administration of L-glutamate. After the area of a 480/520 ratio value in a control without treatment of a test drug was set to 100%, an inhibitory effect of the test drug was calculated as a percentage (%) thereon.
For accurate calcium imaging, the light source of 4 xenon lamps in FDSS6000 were radiated to selectively expose the cells to the excitation wavelength (480 nm) by a computer-controlled filter wheel. Data were obtained at intervals of 1.23 sec. The emitter fluorescence light inflowed through a 520 nm long-pass filter was obtained as an average 480/520 ratio value for each well in the 96-wells by using a CCD camera and a digital fluorescence analyzer in FDSS6000. All image data and analyses were obtained by using a FDSS6000-exclusive program from Hamamatsu Photonics.

Data set [3] has as its system SNL (spinal nerve ligation) neuropathic pain models. Briefly: In vivo test in SNL (spinal nerve ligation) neuropathic pain models. The following applies: orally administered, SNL model, compared with gabapentin as control (FIG. 1 C, D). From the text: The compound prepared in Example 26 was subjected to an in vivo test as follows. […] Here, gabapentin was used as a control.

The conditions of data set [4]: rat.
Data set [5] addresses T1, mGluR5. The experiment in a line: Inhibitory concentration (IC50) on mGluR5. The data set is classed as cell-based.
The next data set has as its target hERG (Homo sapiens, UniProt Q12809). Briefly: Inhibitory concentration (IC50) on hERG. For orientation: Block of hERG is tested as a sign of cardiac risk.

Sequence of CYP2C9 (P11712 whole entry): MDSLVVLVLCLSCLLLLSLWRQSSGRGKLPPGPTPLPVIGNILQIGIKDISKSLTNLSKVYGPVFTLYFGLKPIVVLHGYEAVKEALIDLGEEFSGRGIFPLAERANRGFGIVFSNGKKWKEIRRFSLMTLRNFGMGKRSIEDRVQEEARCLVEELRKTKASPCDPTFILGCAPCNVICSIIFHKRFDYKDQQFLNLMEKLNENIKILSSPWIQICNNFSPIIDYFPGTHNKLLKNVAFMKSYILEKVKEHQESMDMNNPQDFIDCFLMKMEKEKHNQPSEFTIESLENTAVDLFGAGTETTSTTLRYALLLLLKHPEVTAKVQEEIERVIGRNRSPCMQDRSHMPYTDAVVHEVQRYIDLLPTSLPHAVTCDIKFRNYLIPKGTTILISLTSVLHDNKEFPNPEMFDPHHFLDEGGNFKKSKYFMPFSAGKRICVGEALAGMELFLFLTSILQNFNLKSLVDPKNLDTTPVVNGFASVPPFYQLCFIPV
Sequence of CYP3A4 (P08684 whole entry): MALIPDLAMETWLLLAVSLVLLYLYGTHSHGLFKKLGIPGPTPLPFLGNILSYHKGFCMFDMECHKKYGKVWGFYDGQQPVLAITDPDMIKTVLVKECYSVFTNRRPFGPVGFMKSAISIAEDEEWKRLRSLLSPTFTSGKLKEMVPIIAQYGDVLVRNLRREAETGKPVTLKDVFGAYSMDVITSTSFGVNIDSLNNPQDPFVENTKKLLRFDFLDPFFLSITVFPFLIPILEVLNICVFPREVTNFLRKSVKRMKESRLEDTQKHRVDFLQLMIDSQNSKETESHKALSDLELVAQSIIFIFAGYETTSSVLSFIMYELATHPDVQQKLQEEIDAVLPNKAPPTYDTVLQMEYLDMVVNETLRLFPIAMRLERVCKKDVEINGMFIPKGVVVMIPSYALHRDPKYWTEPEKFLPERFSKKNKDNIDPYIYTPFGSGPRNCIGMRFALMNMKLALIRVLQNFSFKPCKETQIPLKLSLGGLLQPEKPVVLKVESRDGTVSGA
Sequence of CYP2D6 (P10635 whole entry): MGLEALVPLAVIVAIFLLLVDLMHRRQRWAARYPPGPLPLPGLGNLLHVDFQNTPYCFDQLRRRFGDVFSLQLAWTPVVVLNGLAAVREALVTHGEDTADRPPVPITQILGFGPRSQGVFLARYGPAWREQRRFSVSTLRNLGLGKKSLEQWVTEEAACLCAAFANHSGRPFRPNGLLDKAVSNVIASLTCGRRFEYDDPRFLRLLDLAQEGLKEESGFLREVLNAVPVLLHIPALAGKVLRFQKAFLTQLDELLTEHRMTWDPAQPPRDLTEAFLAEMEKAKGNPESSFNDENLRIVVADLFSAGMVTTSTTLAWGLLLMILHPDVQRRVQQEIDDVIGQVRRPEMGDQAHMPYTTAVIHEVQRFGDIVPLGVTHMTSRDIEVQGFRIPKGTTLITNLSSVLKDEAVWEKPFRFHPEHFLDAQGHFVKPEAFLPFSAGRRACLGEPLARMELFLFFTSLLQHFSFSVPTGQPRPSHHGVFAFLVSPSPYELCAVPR
T1 sequence (P41594 21-1212): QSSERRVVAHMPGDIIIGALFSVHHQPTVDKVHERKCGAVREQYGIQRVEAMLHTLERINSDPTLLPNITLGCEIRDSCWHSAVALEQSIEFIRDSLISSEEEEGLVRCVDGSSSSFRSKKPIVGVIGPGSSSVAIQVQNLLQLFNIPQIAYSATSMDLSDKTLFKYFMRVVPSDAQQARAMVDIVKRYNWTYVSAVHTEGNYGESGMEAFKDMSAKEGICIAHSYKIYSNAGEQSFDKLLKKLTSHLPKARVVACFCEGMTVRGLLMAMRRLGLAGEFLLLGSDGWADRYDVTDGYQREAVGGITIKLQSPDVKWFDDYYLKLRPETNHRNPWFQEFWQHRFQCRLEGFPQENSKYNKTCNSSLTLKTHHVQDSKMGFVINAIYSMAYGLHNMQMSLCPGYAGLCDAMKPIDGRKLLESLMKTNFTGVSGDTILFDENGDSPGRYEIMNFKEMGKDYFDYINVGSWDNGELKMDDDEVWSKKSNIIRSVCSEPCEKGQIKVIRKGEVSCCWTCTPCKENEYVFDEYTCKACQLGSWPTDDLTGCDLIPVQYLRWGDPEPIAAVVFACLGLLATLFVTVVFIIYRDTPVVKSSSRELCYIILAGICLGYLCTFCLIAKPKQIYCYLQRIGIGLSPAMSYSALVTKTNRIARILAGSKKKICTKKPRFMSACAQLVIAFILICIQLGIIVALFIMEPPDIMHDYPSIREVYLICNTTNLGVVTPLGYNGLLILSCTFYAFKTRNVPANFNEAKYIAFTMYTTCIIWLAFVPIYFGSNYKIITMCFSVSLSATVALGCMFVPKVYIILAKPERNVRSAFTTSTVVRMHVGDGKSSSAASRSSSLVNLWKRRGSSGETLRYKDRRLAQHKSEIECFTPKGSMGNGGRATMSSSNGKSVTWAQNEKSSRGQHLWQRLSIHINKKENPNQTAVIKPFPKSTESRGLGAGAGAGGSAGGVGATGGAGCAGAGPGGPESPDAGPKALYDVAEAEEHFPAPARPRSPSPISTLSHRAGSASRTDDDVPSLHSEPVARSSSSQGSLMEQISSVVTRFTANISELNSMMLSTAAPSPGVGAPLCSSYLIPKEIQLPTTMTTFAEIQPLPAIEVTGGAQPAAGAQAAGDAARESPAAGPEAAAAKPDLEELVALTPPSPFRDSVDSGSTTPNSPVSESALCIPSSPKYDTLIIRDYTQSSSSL
Sequence of hERG (Q12809 whole entry): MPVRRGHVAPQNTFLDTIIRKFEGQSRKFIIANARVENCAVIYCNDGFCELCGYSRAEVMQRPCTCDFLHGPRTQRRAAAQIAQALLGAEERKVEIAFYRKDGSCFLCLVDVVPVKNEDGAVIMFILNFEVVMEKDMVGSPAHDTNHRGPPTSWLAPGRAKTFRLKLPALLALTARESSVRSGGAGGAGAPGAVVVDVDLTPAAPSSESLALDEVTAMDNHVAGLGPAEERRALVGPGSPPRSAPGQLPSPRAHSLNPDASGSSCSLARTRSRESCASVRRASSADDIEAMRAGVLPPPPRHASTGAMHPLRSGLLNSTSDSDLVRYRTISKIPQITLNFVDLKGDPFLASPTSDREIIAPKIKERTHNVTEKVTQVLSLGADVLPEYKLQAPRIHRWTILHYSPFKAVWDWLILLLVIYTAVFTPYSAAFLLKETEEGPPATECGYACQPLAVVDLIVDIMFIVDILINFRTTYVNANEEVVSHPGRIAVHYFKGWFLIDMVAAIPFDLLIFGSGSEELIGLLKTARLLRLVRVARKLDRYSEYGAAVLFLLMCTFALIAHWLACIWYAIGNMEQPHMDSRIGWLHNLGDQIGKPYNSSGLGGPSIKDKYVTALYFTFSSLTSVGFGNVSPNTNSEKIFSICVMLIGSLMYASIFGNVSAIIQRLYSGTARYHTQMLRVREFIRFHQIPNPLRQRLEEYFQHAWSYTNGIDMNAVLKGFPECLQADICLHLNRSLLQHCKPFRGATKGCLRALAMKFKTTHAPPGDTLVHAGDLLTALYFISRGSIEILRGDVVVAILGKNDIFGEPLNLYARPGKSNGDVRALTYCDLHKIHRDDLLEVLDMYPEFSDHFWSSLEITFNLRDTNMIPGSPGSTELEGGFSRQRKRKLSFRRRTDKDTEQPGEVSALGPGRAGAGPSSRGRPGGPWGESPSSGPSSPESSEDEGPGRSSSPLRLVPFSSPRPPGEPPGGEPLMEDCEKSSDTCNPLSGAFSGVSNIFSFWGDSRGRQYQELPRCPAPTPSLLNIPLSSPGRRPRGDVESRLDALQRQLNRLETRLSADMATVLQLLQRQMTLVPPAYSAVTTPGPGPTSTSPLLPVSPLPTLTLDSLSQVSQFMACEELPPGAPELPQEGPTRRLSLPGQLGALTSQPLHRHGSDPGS

On to `COc1cccc2nc(C#Cc3ccccc3)ccc12` [Example 14, 5-Methoxy-2-(phenylethynyl)quinoline], for which the “CYP (% remaining @ 10 μM) CYP2D6” value at CYP2D6 was above 99%. For the same compound, the “CYP (% remaining @ 10 μM) CYP3A4” value on CYP3A4 is recorded as 50%. Besides, the “CYP (% remaining @ 10 μM) CYP2C9” value at CYP2C9 came to 55%. The “HLM % remaining after 30 min” value in data set [1] is reported as below 1%. Further, on mGluR5 [2], the inhibition at 1 µM was 63.6% and the inhibition at 10 µM stood at 68%.

In the case of `C(#Cc1ccc2ccccc2n1)c1ccccn1` [Example 26, 2-(Pyridine-2-ylethynyl)quinoline], the “CYP (% remaining @ 10 μM) CYP2D6” value at CYP2D6 came to 98%. In data set [3], the “inhibitory effect on cold allodynia” value is recorded as “higher inhibitory effect”. Further, on CYP3A4, the “CYP (% remaining @ 10 μM) CYP3A4” value is given as 77%. In addition, the “CYP (% remaining @ 10 μM) CYP2C9” value on CYP2C9 is on record as above 99%. In data set [4] (intravenous injection (n=4)), the CL is reported as 84.93 (±8.98) mL/min/kg, the T1/2 is 58.24 (±62.41) min and the Vdss was 1269.02 (±158.55) mL/kg. In data set [4] (oral administration), this compound returned an F of 15.9%. Also, in [4] (oral administration (n=3)), the Cmax is 0.43 (±0.18) μg/mL and the T1/2 is listed as 48.53 (±8.06) min. Besides, the Tmax in data set [4] (oral administration (n=3), median value (range)) is on record as 10 (5-30)^a min. At mGluR5 [5], the IC50 came to 0.94 ± 0.25 µM. At hERG, this compound yielded an IC50 of 20.3 ± 6.11 µM. The “HLM % remaining after 30 min” value in data set [1] was 88%. At mGluR5 [2], the inhibition at 1 µM came out at 58.8% and the inhibition at 10 µM was found to be 76.7%.

Regarding `N#Cc1cccc(C#Cc2ccc3ccccc3n2)n1` [Example 39, 6-(Quinoline-2-ylethynyl)picolinonitrile], the “CYP (% remaining @ 10 μM) CYP2D6” value at CYP2D6 stood at 78%. At CYP3A4, the “CYP (% remaining @ 10 μM) CYP3A4” value came out at 56%. Moreover, at CYP2C9, the “CYP (% remaining @ 10 μM) CYP2C9” value was 52%. The IC50 on mGluR5 [5] amounted to 0.75 ± 0.17 µM; on hERG it was 22.7 ± 7.04 µM. Also, the “HLM % remaining after 30 min” value in [1] is 98%. The inhibition at 1 µM at mGluR5 [2] is 33%. Further, the inhibition at 10 µM at mGluR5 [2] turned out to be 64.8%.
